# Source: patent publication US7855211B2, “Protein kinase inhibitors” (Eli Lilly and Company, priority 2008, dated 2010)
# How the values were obtained:
# [1] = Rat Oral Bioavailability Assay; format: in vivo; details: plasma, 1 mg/kg, male Sprague Dawley rats, oral suspension vs intravenous, read-out: Fraction bioavailable relative to the intravenous dose (% F)
# Protocol: Male Sprague Dawley rats (body weight range 250-320 g) with indwelling femoral arterial cannulae are obtained from Charles River, Wilmington, Mass. 01887, USA. Test compound is administered intravenously in solution (2 mL/kg) in: 10% N-methyl pyrollidone/18% Captisol® in 22.5 mM phosphate buffer, pH 3. The final drug concentration is 0.25 mg/mL (free base equivalents). Blood samples are obtained using the indwelling cannula over 24 h. The animals are then administered an oral dose of test compound in suspension (5 mL/kg) in 1% w/v hydroxyethylcellulose/0.25% v/v polysorbate 80/0.05% v/v antifoam in purified water. The final drug concentration is 0.2 mg/mL (free base equivalents). […]
# An internal standard compound (for normalisation) in acetonitrile/methanol (1:1, v/v) is added to samples of plasma to precipitate protein and the samples are centrifuged prior to analysis. The supernatants are analysed by injection and rapid gradient elution on a Javelin Betasil C18 column (20×2.1 mm cartridge, Mobile phase A: Water/1 M ammonium bicarbonate, 2000:10 v/v, Mobile Phase B: MeOH/1 M ammonium bicarbonate, 2000:10 v/v). The eluted analytes are detected by LC-MS-MS analysis using a Sciex API 4000 triple quadrupole mass spectrometer. Concentrations of compounds in plasma are determined from standards prepared under identical conditions. […]
# Pim-1 = Pim-1 (Homo sapiens, UniProt P11309); assay: Assay for Inhibition of PIM1 Kinase; format: biochemical
# Protocol: Pim-1 (human, 0.46 nM final concentration) is incubated with 8 mM MOPS pH 7.0, 0.2 mM EDTA, 100 μM of an appropriate substrate peptide (see Pim-1 kinase inhibition assay protocol as described in Chen, L. S. et al. (2009) Blood, DOI: 10.1182/blood-2009-03-212852), 10 mM MgAcetate and [γ-^33P-ATP] (specific activity approx. 500 cpm/pmol, concentration as required). The reaction is initiated by the addition of the MgATP mix and then incubated for 40 minutes at room temperature. The reaction is stopped by the addition of 3% phosphoric acid solution. 10 μL of the reaction is then spotted onto a P30 filtermat and washed three times for 5 minutes in 75 mM phosphoric acid and once in methanol prior to drying and scintillation counting. For compound inhibition testing, compounds provided as 10 mM stocks in 100% DMSO are diluted 1:10 in 100% DMSO to give a 50× stock of the top concentration of the curve. The 50× stock is then serially diluted 1:3 in 100% DMSO to create a 10 point concentration-response curve and diluted 1:50 (20 μM to 0.001 μM final in 2% final DMSO concentration) in the reaction mixture to determine compound activity. […] The percent inhibition determined from the controls on each plate and ten-point compound concentration data were then fit to a four-parameter logistic equation using ACTIVITYBASE 4.0. […]
# CDK4 = molecular target: T1, CDK4 (Homo sapiens, UniProt P11802); assay: CDK4 Inhibition Assay; format: biochemical; details: CDK4 kinase, 33P-ATP, CTRF substrate
# T1 construct: purchased Proqinase 0142-0373-1
# Protocol: All ligands, radiolabels, solvents, and reagents employed in the following assays are readily available from commercial sources, or can be readily synthesized by one skilled in the art.
# 10 μL of test compound in 20% DMSO, 20 μL of adenosine 5′-triphosphate (ATP) and C-Terminal Retinoblastoma Fragment (CTRF) (Upstate cat # 12-439) solution, and 10 μL of enzyme solution are mixed in a 96 well plate. The ATP and CRTF solution is prepared from a mixture of 40 μM ATP, 0.16 μCi [^33P] ATP and 1 μM CTRF diluted in kinase buffer of 68 mM 4-(2-hydroxyethyl)-1-piperazineethanesulfonic acid (HEPES) pH 7.4, 6.72 mM MgCl2, 6.72 mM dithiothreitol (DTT), and 0.013% TRITON™ X-100. The enzyme solution is prepared from 8 ng CDK4 enzyme (Proqinase cat # 0142-0373-1) diluted in the kinase buffer described above. Test compounds are serially diluted 1:3 in 20% DMSO to create a 10 point curve at a starting concentration of 20 μM. 20% DMSO buffer alone without added test compound is employed as a control, 500 mM ethylene diamine tetraacetic acid (EDTA) is used to determine the level of background ^33P in the absence of enzyme activity. Reagents are mixed and incubated for 90 min at 20° C. […] The wells are washed four times with 0.5% H3PO4 and the radioactivity incorporated is determined with a microplate scintillation counter (Microbeta Trilux, Wallac). […]
# [2] = system: phosphorylation of Retinoblastoma Protein (pRb); assay: Inhibition of Phosphorylation of Retinoblastoma Protein (pRb) in COLO 205 cells; format: cell-based; details: Homo sapiens, 24 h exposure, read-out: IC50 (% phosphoRB positive)
# Protocol: COLO 205 Cells from the American Type Culture Collection (ATCC) are plated at 2000 cells/well in 96 well […] BIOCOAT™ plates, and are incubated in RPMI 1640 medium (e.g., GIBCO, catalog #52400-025) with 10% Fetal Bovine Serum (FBS e.g. Gibco cat #11000-144) and 1% sodium pyruvate (Gibco catalog #11360-070) in 37° C., 5% CO2 for 24 h. Cells are treated by adding test compound to the medium, dosing at 10 points of 1:3 dilutions across the range of 20 μM to 0.001 μM, and with final DMSO concentration at 0.25%. After 24 h exposure to the compounds, cells are fixed with the PREFER™ fixative [Anatech LTD., Cat # 414] for 30 min at RT, then are permeabilized with 0.1% TRITON® X100 in phosphate buffered saline (PBS) solution for 15 min at RT. […] Fluorescence plates are scanned with ACUMEN EXPLORER™ [Laser-scanning fluorescence microplate cytometer (comprising of 488 nm argon ion laser excitation and multiple photomultiplier tube detection), manufactured by TTP LABTECH LTD] to measure phosphorylation of Rb protein and DNA content. […] Assay outputs are percentage of each identified subpopulations, % phosphoRB positive, % 2 N and % 4 N. The IC50 and EC50 values are determined by curve fitting to a four parameter logistic for each output using ACTIVITY BASE™. […]
# T1 sequence (P11802 whole entry): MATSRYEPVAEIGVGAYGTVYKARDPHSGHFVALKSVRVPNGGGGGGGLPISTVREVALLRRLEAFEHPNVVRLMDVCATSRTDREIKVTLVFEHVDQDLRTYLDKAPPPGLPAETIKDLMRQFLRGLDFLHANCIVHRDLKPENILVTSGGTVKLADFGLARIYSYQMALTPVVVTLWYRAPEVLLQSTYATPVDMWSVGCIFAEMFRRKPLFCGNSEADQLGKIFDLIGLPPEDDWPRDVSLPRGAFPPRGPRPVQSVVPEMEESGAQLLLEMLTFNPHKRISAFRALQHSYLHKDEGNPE
# T1 sequence (P30281 whole entry partner): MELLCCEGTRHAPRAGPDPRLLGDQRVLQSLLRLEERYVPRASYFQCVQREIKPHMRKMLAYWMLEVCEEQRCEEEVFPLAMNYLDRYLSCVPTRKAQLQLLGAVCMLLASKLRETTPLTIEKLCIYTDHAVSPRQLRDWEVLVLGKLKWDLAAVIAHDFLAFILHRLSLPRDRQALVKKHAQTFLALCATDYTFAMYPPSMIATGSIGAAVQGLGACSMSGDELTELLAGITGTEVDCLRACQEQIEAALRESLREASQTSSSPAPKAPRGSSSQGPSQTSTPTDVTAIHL
# Sequence of Pim-1 (P11309 whole entry): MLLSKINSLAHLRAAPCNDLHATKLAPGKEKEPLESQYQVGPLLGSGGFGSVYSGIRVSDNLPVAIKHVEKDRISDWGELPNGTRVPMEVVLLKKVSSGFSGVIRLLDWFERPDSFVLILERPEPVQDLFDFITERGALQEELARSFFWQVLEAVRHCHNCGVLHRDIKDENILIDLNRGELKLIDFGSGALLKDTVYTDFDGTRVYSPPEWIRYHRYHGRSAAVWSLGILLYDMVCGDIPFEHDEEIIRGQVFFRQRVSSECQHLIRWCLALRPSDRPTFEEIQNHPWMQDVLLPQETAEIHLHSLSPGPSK
IC50 (Pim-1) [nM],IC50 (CDK4) [nM],IC50 [2] [nM],Compound,bioavailability [1] [%]
,,,"CS(=O)(=O)O.Cc1nc2ccc(-c3nc(Nc4ccc(C5CCN(C(C)C)CC5)cn4)ncc3F)cc2n1C1CCCC1 [Example 22, [4-(3-Cyclopentyl-2-methyl-3H-benzoimidazol-5-yl)-5-fluoro-pyrimidin-2-yl]-(1′-isopropyl-1′,2′,3′,4′,5′,6′-hexahydro-[3,4′]bipyridinyl-6-yl)-amine methanesulfonate]",48.5
3,3,~100,"CCN1CCC(Cc2ccc(Nc3ncc(F)c(-c4cc(F)c5nc(C)n(C(C)C)c5c4)n3)nc2C)CC1 [Example 25, [5-(1-Ethyl-piperidin-4-ylmethyl)-6-methyl-pyridin-2-yl]-[5-fluoro-4-(7-fluoro-3-isopropyl-2-methyl-3H-benzoimidazol-5-yl)-pyrimidin-2-yl]-amine methanesulfonate]",
